Data on eleven molecules can be found in ChEMBL document CHEMBL1137160, “Structure-activity relationships of methylene or terminal side chain modified retinoids on the differentiation and cell death signaling in NB4 promyelocytic leukemia cells” (2004).

The target of test [1] is T1, Retinoic acid receptor RXR-beta (Homo sapiens) (UniProt P28702).
T1 sequence (whole entry): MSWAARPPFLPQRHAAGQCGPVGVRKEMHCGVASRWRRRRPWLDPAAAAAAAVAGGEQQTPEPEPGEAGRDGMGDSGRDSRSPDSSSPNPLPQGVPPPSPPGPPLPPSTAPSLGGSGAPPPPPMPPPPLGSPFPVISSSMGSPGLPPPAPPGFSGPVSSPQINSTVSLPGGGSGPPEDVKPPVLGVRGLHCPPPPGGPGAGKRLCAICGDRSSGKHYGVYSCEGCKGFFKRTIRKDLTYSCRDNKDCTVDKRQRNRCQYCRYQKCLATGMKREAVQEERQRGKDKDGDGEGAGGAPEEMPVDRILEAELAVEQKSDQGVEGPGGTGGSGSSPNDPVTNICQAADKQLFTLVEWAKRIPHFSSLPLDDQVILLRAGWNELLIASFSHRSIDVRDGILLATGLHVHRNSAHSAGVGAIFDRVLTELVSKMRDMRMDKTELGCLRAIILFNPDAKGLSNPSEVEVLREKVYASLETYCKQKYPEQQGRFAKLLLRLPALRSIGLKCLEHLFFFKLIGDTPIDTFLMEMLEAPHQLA
The test can be described thus: Agonist activity for Retinoid X receptor beta as photons in presence and absence of ligand. It counts as functional. Also on record: unit not given here.

Test [2] has as its system NB-4. The test can be described thus: Ability to induce maturation and cell death of NB4 cells labelled with V-FITC on day 3. Also noted: concentration or dose not given beside the values. It is filed as functional, Homo sapiens.
Test [3] concerns NB-4. Kind of test: Evaluated for mean value of the fluorescence intensity of CD11c-PE expressing NB4 cells at day 6. It counts as functional, Homo sapiens.
The subject of test [4] is NB-4. The test can be described thus: Ability to induce maturation and cell death of NB4 cells labelled with V-FITC on day 6. Also on record: concentration or dose not given beside the values. It is filed as functional, Homo sapiens.
The test system of test [5] is NB-4. The test can be described thus: Evaluated for mean value of the fluorescence intensity of CD11c-PE expressing NB4 cells at day 3. It is filed as functional, Homo sapiens.
Test [6] has as its target T2, Retinoic acid receptor beta (Homo sapiens) (UniProt P10826).
T2 sequence (whole entry): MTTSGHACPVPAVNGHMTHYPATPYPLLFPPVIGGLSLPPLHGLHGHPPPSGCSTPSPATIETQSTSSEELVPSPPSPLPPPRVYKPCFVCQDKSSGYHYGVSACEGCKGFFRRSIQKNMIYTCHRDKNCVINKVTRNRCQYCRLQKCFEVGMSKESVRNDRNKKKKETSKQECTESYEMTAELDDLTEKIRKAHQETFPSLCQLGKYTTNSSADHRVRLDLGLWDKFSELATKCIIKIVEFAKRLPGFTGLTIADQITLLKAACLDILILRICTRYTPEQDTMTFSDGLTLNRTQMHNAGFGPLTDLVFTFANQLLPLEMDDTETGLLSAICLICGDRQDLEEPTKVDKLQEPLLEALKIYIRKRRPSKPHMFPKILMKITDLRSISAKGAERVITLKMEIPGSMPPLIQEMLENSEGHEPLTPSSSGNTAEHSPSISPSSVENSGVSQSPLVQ
The test can be described thus: Agonist activity for Retinoic acid receptor beta as photons in presence and absence of ligand. It counts as functional. Also noted: unit not given here.

Test [7] concerns the target T3, Retinoic acid receptor gamma (Homo sapiens) (UniProt P13631).
T3 sequence (whole entry): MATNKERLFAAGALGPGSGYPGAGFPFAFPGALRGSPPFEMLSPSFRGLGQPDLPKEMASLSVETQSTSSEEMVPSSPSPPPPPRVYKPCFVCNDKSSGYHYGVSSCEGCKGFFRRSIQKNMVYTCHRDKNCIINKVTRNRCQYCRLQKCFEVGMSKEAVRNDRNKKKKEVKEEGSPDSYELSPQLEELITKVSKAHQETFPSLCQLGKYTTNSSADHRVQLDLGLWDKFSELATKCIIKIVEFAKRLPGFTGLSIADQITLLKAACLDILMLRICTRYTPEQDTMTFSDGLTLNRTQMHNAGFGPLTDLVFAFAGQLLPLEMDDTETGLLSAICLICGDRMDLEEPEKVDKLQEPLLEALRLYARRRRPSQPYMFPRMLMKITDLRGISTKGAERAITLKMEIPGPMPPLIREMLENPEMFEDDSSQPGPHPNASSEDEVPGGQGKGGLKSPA
Kind of test: Agonist activity for Retinoic acid receptor gamma as photons in presence and absence of ligand. It counts as functional. Also noted: concentration or dose not given beside the values.

The target in test [8] is T4, Retinoic acid receptor alpha (Homo sapiens) (UniProt P10276).
T4 sequence (whole entry): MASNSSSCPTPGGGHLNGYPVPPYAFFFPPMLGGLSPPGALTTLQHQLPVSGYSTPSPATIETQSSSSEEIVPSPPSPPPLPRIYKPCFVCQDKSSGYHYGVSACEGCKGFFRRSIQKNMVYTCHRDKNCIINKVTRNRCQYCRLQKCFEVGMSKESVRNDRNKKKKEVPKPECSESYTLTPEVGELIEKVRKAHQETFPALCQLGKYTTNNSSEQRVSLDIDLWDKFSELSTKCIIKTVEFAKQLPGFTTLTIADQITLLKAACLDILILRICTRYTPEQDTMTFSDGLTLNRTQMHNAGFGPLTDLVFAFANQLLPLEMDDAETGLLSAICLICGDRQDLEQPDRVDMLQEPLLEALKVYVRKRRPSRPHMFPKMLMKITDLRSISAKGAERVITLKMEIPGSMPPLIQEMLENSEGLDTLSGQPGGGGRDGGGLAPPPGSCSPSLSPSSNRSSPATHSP
Kind of test: Agonist activity for Retinoic acid receptor alpha as photons in presence and absence of ligand. It is filed as functional. Also on record: unit not given here.

As to `CC1=C(/C=C/C(C)=C\C=C\C(C)=C\C(=O)O)C(C)(C)CCC1`, the Activity in test [1] stood at 14.5.
Take `CC1(C)CCC(C)(C)c2cc(C3(c4ccc(C(=O)O)cc4)OCCO3)ccc21`: the Activity with NB-4 [2] is 11%; with NB-4 [3], 23; in the test with NB-4 [4], 11%; in the test on NB-4 [5], 22.
For the molecule `C/C(=C\c1ccc(C(=O)O)cc1)c1ccc2c(c1)C(C)(C)CCC2(C)C`, the Activity with NB-4 [2] is on record as 14%; in the test with NB-4 [3] it was 170; in the test with NB-4 [4], 35%; in the test with NB-4 [5] it was 106.
Consider `COC(=O)\C=C(C)/C(C#N)=C/C=C(C)/C=C/C1=C(C)CCCC1(C)C`, for which the Activity is 13% with NB-4 [2]; 6.7 in test [6]; 10 in the test on NB-4 [3]; 8% in the test with NB-4 [4]; 3 in test [7]; 1.6 in test [1]. Also, the Activity in the test with NB-4 [5] worked out at 10; in test [8] it was 1.3.
With `C=C(/C=C/C1=C(C)CCCC1(C)C)C/C=C/C(C)=C/C(=O)O`, the Activity in the test with NB-4 [2] amounted to 18%; in test [6], 7.2; with NB-4 [3], 163; in the test on NB-4 [4], 56%; in test [7], 3.3; in test [1], 5.8. Moreover, the Activity in the test on NB-4 [5] was determined as 117; in test [8] it was 7.
In the case of `CC1=C(/C=C/C(C)=C/C=C(C#N)/C(C)=C\C(=O)O)C(C)(C)CCC1`, the Activity stood at 9% in the test on NB-4 [2]; 14.6 in test [6]; 126 in the test on NB-4 [3]; 20% in the test with NB-4 [4]; 8.9 in test [7]; 2.1 in test [1]. Besides, the Activity was 88 with NB-4 [5] and 23.5 in test [8].
For the molecule `CC1=C(/C=C/C(C)=C/C=C(\C#N)C(C)=C(C(=O)O)C(=O)O)C(C)(C)CCC1`, the Activity with NB-4 [2] came out at 11%; in test [6], 17.9; with NB-4 [3], 64; in the test on NB-4 [4], 12%; in test [7], 11.7; in test [1], 3. For the same molecule, the results for the Activity (with NB-4 [5]; in test [8]) were 77 and 22.2, respectively.
As to `C=C(/C=C/c1ccccc1)C/C=C/C(C)=C\C(=O)O`, the Activity with NB-4 [2] was 9%; in test [6], 4; with NB-4 [3], 12; in the test on NB-4 [4], 8%; in test [7], 4.6; in test [1], 13.5. Further, the Activity in the test with NB-4 [5] was found to be 15; in test [8] it was 4.9.
`CC1=C(/C=C/C(C)=C/C=C/C(C)=C/C(=O)O)C(C)(C)CCC1` [TRETINOIN]: the Activity in the test on NB-4 [2] is given as 14%; with NB-4 [3], 197; with NB-4 [4], 50%; in the test with NB-4 [5], 110.
Consider `C=C(/C=C/C1=C(C)CCCC1(C)C)C/C=C/C(C)=C\C(=O)O`, for which the Activity with NB-4 [2] is 11%; in test [6], 14.5; with NB-4 [3], 43; in the test with NB-4 [4], 14%; in test [7] it was 10.9; in test [1], 2.1. The Activity in the test on NB-4 [5] came to 38; in test [8], 11.8.
In the case of `C=C(/C=C/C1=C(C)CCCC1(C)C)C/C=C/C=C\C(=O)O`, the Activity in the test with NB-4 [2] came out at 10%; in test [6], 13.1; with NB-4 [3] it was 35; in the test on NB-4 [4], 12%; in test [7] it was 7.9; in test [1], 2. Moreover, the Activity in the test with NB-4 [5] was 33; in test [8], 7.1.
